# Laboratory results taken from patent US11987582B2, “Maleate salts of triazolopyrazine derivatives, compositions, methods of use, and processes of manufacturing the same” (ABION Inc, priority 2021, dated 2024).
# Like-named read-outs stand apart in the source and are kept apart here.
# What was measured:
# [1] = PK parameters in plasma after single administration; format: in vivo, Wistar rats; settings: for AUC(0-inf) / AUC(0-t) / Cmax / Tmax: Wistar, rat, plasma
# [2] = PK parameters after bid (twice a day) administration; format: in vivo; settings: for Cmax1 / Tmax1: after first daily dosing; for Cmax2 / Tmax2: after second daily dosing; for AUC / AUC(0-t): in vivo; for AUC: read-out: AUC(12-24 h)
# Description: FIG. 10 and Table 4 show the PK properties of the compound of Chemical Formula 2 administered twice a day (bid).
# FIG. 11 and Table 5 show the PK properties of the compound of Chemical Formula 1 administered twice per day.
# [3] = system: lung cancer cell line EBC-1; assay: cancer cell proliferation inhibitory experiment (SRB); format: cell-based, human
# Method: The following exemplary experimental protocol was performed to test the activity of the maleate salt compounds described herein.
# An RPMI 1640 cell culture medium, fetal bovine serum (FBS) and trypsin were purchased from GIBCO Co., Ltd. (Grand Island, N.Y.), and sodium hydrogencarbonate, amphotericin B and gentamycin were used as signamic medical products. In addition, reagents such as sulforhodamine (SRB) B, Trisma Base, and trichloroacetic acid (TCA), which were reagents used in a cytotoxicity measurement experiment, were purchased from Sigma Chemical Co., Ltd. For MTS analysis, a Celltiter 96 Aqueous Non-Radioactive Cell Proliferation Assay product was purchased from Promega Co., Ltd. Further, a T-25 culture container used for cell culture, a 96-well plate and other disposable glass used for cell culture were obtained from Folkon (Lincoln Park, N.J.) products.
# A drug used in the experiment was diluted as an experimental medium to a desired concentration in the test, and the final dimethylsulfoxide concentration was 0.5% or less.
# Cancer cell lines used in the experiment were human-derived cancer cell lines, and a lung cancer cell line EBC-1. RPMI 1640 medium with 10% fetal bovine serum (FBS) was used and cultured in an incubator of 37° C. and 5% CO2 and subcultured once by 3 to 4 days.
# Specifically, after the culture with the compound of the present disclosure was terminated, the culture solution was removed, and a cold TCA solution added to each well. The cells were left at 4° C. for 1 hour to be fixed. The TCA solution was removed, and the cells were dried at room temperature, incubated with a solution obtained by dissolving 0.4% SRB in a 1% acetic acid solution, left at room temperature for 30 minutes, and then stained. Extra SRB which was not bound to the cells was washed with a 1% acetic acid solution, and the SRB was eluted by adding a […] tris buffer solution (trisma base; unbuffered) of pH 10.3 to 10.5 to the stained cells.
# [4] = thermodynamic solubility in formulation vehicles (phosphate buffer pH 7.4 with excipients); format: physicochemical; settings: for solubility at 24 h: pH 7.4, aqueous with cosolvent or surfactant or cyclodextrin, thermodynamic from solid
# Method: In view of developing a formulation suitable for parenteral administration, the quantitative solubility of Chemical Formula land the Chemical Formula 2 were determined in phosphate buffer pH 7.4, supplemented with solubility-enhancing excipients. The target concentration is 1-1.3 mg/mL.
# Based on the qualitative solubility result determined for the PBS formulation vehicle containing Transcutol (Gattefossé, France) and TPGS (tocopherol polyethylene glycol succinate), the quantitative solubility of the compound of Chemical Formula 1 and the compound of Chemical Formula 2 was determined in those vehicles to assess the maximum solubility in those vehicles. The thermodynamic solubility was then determined in PBS buffer containing Transcutol (50% and 10%) and TPGS (20% and 10%) and also in the formulation vehicles containing PEG 400 (50%, with and without presence of 2% DMSO). Suspensions of the compound of Chemical Formula 1 and the compound of Chemical Formula 2 were prepared in the selected vehicles with a compound of Chemical Formula 1 concentration of about 3.5-5 mg/mL. After incubation for 24 hours at room temperature, the solids and liquid phases were separated. The concentration of API in solution was determined by HPLC analysis. The results can be found in FIG. 6.
# [5] = pH-dependent solubility study; format: physicochemical
# [6] = long-term stability study, water uptake by TGA; format: physicochemical
# Method: The physical and chemical stability study was performed on the compounds of Chemical Formula 2 and Chemical Formula 1 (for reference purposes). The long-term stability study was conducted at defined temperatures and relative humidity levels (25° C./60% relative humidity (RH) and 40° C./75% RH). At regular intervals, a solid sample was analyzed by XRPD, TGMS and HPLC.
# [7] = dynamic vapor sorption (DVS) analysis of hygroscopicity; format: physicochemical; settings: humidity range below 80%, 25° C., in words
# Method: Differential scanning calorimetry (DSC) analysis was performed to confirm the thermal stability of the novel salts provided in the present disclosure, and dynamic vapor sorption (DVS) analysis was performed to confirm the hygroscopicity.
# The DVS analysis was performed to confirm the hygroscopicity of the salts by using a DVS-1 device, and was performed at a relative humidity of 40%, 95%, and 0% at 25° C. for 60 minutes.
smiles,measurement,setting,value
CN1CCN(Cc2ccc(-c3cnc(N4CCOC(Cn5nnc6ncc(-c7cnn(C)c7)nc65)C4)nc3)cc2)CC1.O=C(O)/C=C\C(=O)O (stereo not shown) [Chemical Formula 2],AUClast/Dose,[1]; 5 mg/kg IV,1630 kg·nM·h/mg
same,AUC∞/Dose,[1]; 5 mg/kg IV,1655 kg·nM·h/mg
same,Cl,[1]; 5 mg/kg IV,0.000606 mg/h/nM/kg
same,Vss,[1]; 5 mg/kg IV,0.00271 mg/nM/kg
same,Vz,[1]; 5 mg/kg IV,0.00259 mg/nM/kg
same,AUClast/Dose,[1]; 5 mg/kg PO,347 kg·nM·h/mg
same,AUC∞/Dose,[1]; 5 mg/kg PO,355 kg·nM·h/mg
same,F,[1]; 5 mg/kg PO,21.4%
same,AUClast/Dose,[1]; 20 mg/kg PO,341 kg·nM·h/mg
same,AUC∞/Dose,[1]; 20 mg/kg PO,346 kg·nM·h/mg
same,F,[1]; 20 mg/kg PO,20.9%
same,AUC(0-inf),[1]; 5 mg/kg IV,8.27 µM·h
same,AUC(0-t),[1]; 5 mg/kg IV,8.13 µM·h
same,AUC(0-inf),[1]; 5 mg/kg PO,1.77 µM·h
same,AUC(0-t),[1]; 5 mg/kg PO,1.73 µM·h
same,Cmax,[1]; 5 mg/kg PO,246 nM
same,Tmax,[1]; 5 mg/kg PO,2 to 4 h
same,AUC(0-inf),[1]; 20 mg/kg PO,6.93 µM·h
same,AUC(0-t),[1]; 20 mg/kg PO,6.82 µM·h
same,Cmax,[1]; 20 mg/kg PO,676 nM
same,Tmax,[1]; 20 mg/kg PO,2 to 4 h
same,AUC(0-12 h)/Dose,[2]; 5 mg/kg IV (10 mg/kg/day),1060 kg·nM·h/mg
same,AUC(12-24 h)/Dose,[2]; 5 mg/kg IV (10 mg/kg/day),1470 kg·nM·h/mg
same,AUClast/Dose,[2]; 5 mg/kg IV (10 mg/kg/day),1298 kg·nM·h/mg
same,Cl,[2]; 5 mg/kg IV (10 mg/kg/day),0.00086 mg/h/nM/kg
same,Vss,[2]; 5 mg/kg IV (10 mg/kg/day),0.00782 mg/nM/kg
same,Vz,[2]; 5 mg/kg IV (10 mg/kg/day),0.00283 mg/nM/kg
same,AUC(0-12 h)/Dose,[2]; 5 mg/kg PO (10 mg/kg/day),685 kg·nM·h/mg
same,AUC(12-24 h)/Dose,[2]; 5 mg/kg PO (10 mg/kg/day),798 kg·nM·h/mg
same,AUClast/Dose,[2]; 5 mg/kg PO (10 mg/kg/day),742 kg·nM·h/mg
same,F,[2]; 5 mg/kg PO (10 mg/kg/day),57.2%
same,Cmax1,[2]; 5 mg/kg PO (10 mg/kg/day),611 nM
same,Tmax1,[2]; 5 mg/kg PO (10 mg/kg/day),0.5-3$ h
same,Cmax2,[2]; 5 mg/kg PO (10 mg/kg/day),802 nM
same,Tmax2,[2]; 5 mg/kg PO (10 mg/kg/day),12.5-13$ h
same,AUC(0-12 h)/Dose,[2]; 20 mg/kg PO (40 mg/kg/day),612 kg·nM·h/mg
same,AUC(12-24 h)/Dose,[2]; 20 mg/kg PO (40 mg/kg/day),601 kg·nM·h/mg
same,AUClast/Dose,[2]; 20 mg/kg PO (40 mg/kg/day),607 kg·nM·h/mg
same,F,[2]; 20 mg/kg PO (40 mg/kg/day),46.8%
same,Cmax1,[2]; 20 mg/kg PO (40 mg/kg/day),1600 nM
same,Tmax1,[2]; 20 mg/kg PO (40 mg/kg/day),2-3$ h
same,Cmax2,[2]; 20 mg/kg PO (40 mg/kg/day),2120 nM
same,Tmax2,[2]; 20 mg/kg PO (40 mg/kg/day),12.5-14$ h
same,AUC,[2]; 5 mg/kg IV (10 mg/kg/day),7.34 µM·h
same,AUC,[2]; 5 mg/kg PO (10 mg/kg/day),3.99 µM·h
same,AUC,[2]; 20 mg/kg PO (40 mg/kg/day),12 µM·h
same,AUC(0-t),"[2]; iv, 5 mg/kg, 5 mg/kg IV (10 mg/kg/day), read-out: AUC(0-12 h)",5.32 µM·h
same,AUC(0-t),"[2]; iv, 5 mg/kg, 5 mg/kg IV (10 mg/kg/day), read-out: AUClast",13 µM·h
same,AUC(0-t),"[2]; po, 5 mg/kg, 5 mg/kg PO (10 mg/kg/day), read-out: AUC(0-12 h)",3.43 µM·h
same,AUC(0-t),"[2]; po, 5 mg/kg, 5 mg/kg PO (10 mg/kg/day), read-out: AUClast",7.42 µM·h
same,AUC(0-t),"[2]; po, 20 mg/kg, 20 mg/kg PO (40 mg/kg/day), read-out: AUC(0-12 h)",12.2 µM·h
same,AUC(0-t),"[2]; po, 20 mg/kg, 20 mg/kg PO (40 mg/kg/day), read-out: AUClast",24.3 µM·h
same,GI50,"[3]; Homo sapiens, EBC-1, EBC-1 cell line",14.2 nM
same,activity in inhibiting cancer cell growth compared to the compound of Chemical Formula 1,[3]; in words,improved activity in inhibiting cancer cell growth
same,solubility at 24 h,"[4]; PBS formulation vehicle with 50% Transcutol, PBS vehicle containing 50% Transcutol, 24 hours at room temperature",> 3500 µg/mL
same,solubility compared with Chemical Formula 1,"[4]; all the formulation vehicles tested, in words",higher than that of the compound of Chemical Formula 1
same,solubility at 24 h,"[4]; almost all vehicles, except for the vehicle with 10% Transcutol",> 1300 µg/mL
same,less soluble than the free base form,[5]; gastric pH (FIG. 7),more than 50%
same,less soluble than the free base form,[5]; pH between 1 and 3,more than 75%
same,less soluble than the free base form,[5]; pH of about 1.2 in 0.05M gastric media,more than 75%
same,water content compared to the free base form,"[6]; 15 months, 40 degrees centigrade, 75% relative humidity (FIG. 4), in words",nearly four times lower
same,water content lower than the free base form,[6]; about 15 months at 40° C. and 75% relative humidity,at least 22%
same,water uptake,"[6]; incubation for 15 months under the tested conditions, in words",no significant water uptake
same,mass loss due to change in humidity (DVS),[7],very low
